Laboratory results taken from patent US20090209528A1, “SUBSTITUTED TETRAHYDROISOQUINOLINE COMPOUND, THEIR PREPARATION AND USE IN MEDICAMENTS” (LABORATORIOS DEL DR. ESTEVE S.A., priority 2006, published 2009).
Counter-ions that a name gives are not always drawn.

Target: T1, 5HT6-human recombinant receptor (Homo sapiens, UniProt P50406)
T1 construct: purchased Receptor Biology; host or cells: HEK-293 cell membranes
Assay: Binding to serotonin receptor 5-HT6 ([3H]-LSD displacement)
Conditions: radioligand [3H]-LSD 2.7 nM; for inhibition at 0.01 µM / inhibition at 0.1 µM: 1 h; for inhibition at 0.01 µM: compound at 10 nM; for inhibition at 0.1 µM: compound at 100 nM; for Ki: membranes of HEK-293 cells expressing the receptor, 60 min, 37° C.
Experimental: Cell membranes of HEK-293 cells expressing the 5HT6-human recombinant receptor were supplied by Receptor Biology. In said membranes the receptor concentration is 2.18 pmol/mg protein and the protein concentration is 9.17 mg/ml. The experimental protocol follows the method of B. L. Roth et al. [B. L. Roth, S. C. Craigo, M. S. Choudhary, A. Uluer, F. J. Monsma, Y. Shen, H. Y. Meltzer, D. R. Sibley: Binding of Typical and Atypical Antipsychotic Agents to 5-Hydroxytryptamine-6 and Hydroxytryptamine-7 Receptors. The Journal of Pharmacology and Experimental Therapeutics, 1994, 268, 1403] with the following slight changes. The respective part of the literature description is hereby incorporated by reference and forms part of the disclosure.
The commercial membrane is diluted (1:40 dilution) with the binding buffer: 50 mM Tris-HCl, 10 mM MgCl2, 0.5 mM EDTA (pH 7.4). The radioligand used is [^3H]-LSD at a concentration of 2.7 nM with a final volume of 200 μl. Incubation is initiated by adding 100 μl of membrane suspension, (≈22.9 μg membrane protein), and is prolonged for 60 minutes at a temperature of 37° C. The incubation is ended by fast filtration in a Brandel Cell Harvester through fiber glass filters made by Schleicher & Schuell GF 3362 pretreated with a solution of polyethylenimine at 0.5%. The filters are washed three times with three milliliters of buffer Tris-HCl 50 mM pH 7.4. The filters are transferred to flasks and 5 ml of Ecoscint H liquid scintillation cocktail are added to each flask. The flasks are allowed to reach equilibrium for several hours before counting with a Wallac Winspectral 1414 scintillation counter. Non-specific binding is determined in the presence of 100 μM of serotonin. Tests were made in triplicate. The inhibition constants (Ki, nM) were calculated by non-linear regression analysis using the program EBDA/LIGAND described in Munson and Rodbard, Analytical Biochemistry, 1980, 107, 220, the respective part of which is hereby incorporated by reference and forms part of the disclosure.

T1 sequence (P50406 whole entry): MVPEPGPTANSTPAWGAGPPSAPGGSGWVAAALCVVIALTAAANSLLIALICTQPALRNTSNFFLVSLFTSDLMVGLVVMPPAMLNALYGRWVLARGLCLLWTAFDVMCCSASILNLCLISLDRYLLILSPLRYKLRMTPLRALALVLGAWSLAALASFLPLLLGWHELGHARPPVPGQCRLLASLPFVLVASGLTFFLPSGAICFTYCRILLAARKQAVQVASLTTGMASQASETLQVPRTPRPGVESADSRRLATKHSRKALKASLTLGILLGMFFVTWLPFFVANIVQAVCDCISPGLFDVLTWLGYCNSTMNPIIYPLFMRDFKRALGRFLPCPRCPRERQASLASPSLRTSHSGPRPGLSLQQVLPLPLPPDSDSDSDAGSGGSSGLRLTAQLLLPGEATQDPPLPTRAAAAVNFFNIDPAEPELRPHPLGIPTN

Row | SMILES | inhibition at 0.01 µM | inhibition at 0.1 µM | Ki
1 | O=S(=O)(Nc1ccc2c(c1)CCNC2)c1cccc2ccccc12 [Example 1, Naphthalene-1-sulfonic acid (1,2,3,4-tetrahydroisoquinolin-6-yl)-amide hydrochloride] | 53.3% | 74.8% | 0.0138 µM
2 | CN(c1ccc2c(c1)CC[N+](C)(C)C2)S(=O)(=O)c1cccc2ccccc12 [Example 2, 2,2-Dimethyl-6-[methyl-(naphthalene-1-sulfonyl)-amino]-1,2,3,4-tetrahydro isoquinolinium iodide] | 17% | 19.6% | 
3 | CN1CCc2cc(NS(=O)(=O)c3cccc4ccccc34)ccc2C1 [Example 3, Naphthalene-1-sulfonic acid (2-methyl-1,2,3,4-tetrahydro-isoquinolin-6-yl)-amide hydrochloride] | 3.9% | 18.2% | 
4 | Cc1c(S(=O)(=O)Nc2ccc3c(c2)CCNC3)sc2ccc(Cl)cc12 [Example 4, 5-Chloro-3-methyl-benzo[b]thiophene-2-sulfonic acid (1,2,3,4-tetrahydro-isoqui-nolin-6-yl)-amide hydrochloride] | 27.3% | 71.1% | 
5 | Cc1c(S(=O)(=O)Nc2ccc3c(c2)CCN(C)C3)sc2ccc(Cl)cc12 [Example 5, 5-Chloro-3-methyl-benzo[b]thiophene-2-sulfonic acid (2-methyl-1,2,3,4-tetrahydro-isoquinolin-6-yl)-amide hydrochloride] | 25.9% | 76.3% | 0.0798 µM
6 | Cc1ccc(S(=O)(=O)Nc2ccc3c(c2)CCNC3)c2ccccc12 [Example 6, 4-Methyl-naphthalene-1-sulfonic acid (1,2,3,4-tetrahydro-isoquinolin-6-yl)amide hydrochloride] | 60.1% | 88.8% | 0.0145 ± 0.0038 µM
7 | Cc1ccc(S(=O)(=O)Nc2ccc3c(c2)CCN(C)C3)c2ccccc12 [Example 7, 4-Methyl-naphthalene-1-sulfonic acid (2-methyl-1,2,3,4-tetrahydro-isoqui-nolin-6-yl)amide hydrochloride] | 80.3% | 92.2% | 0.0133 µM
8 | O=S(=O)(Nc1ccc2c(c1)CCNC2)c1ccc2ccccc2c1 [Example 8, Naphthalene-2-sulfonic acid (1,2,3,4-tetrahydro-isoquinolin-6-yl)-amide hydrochloride] | 37.4% | 74.6% | 
9 | CN1CCc2cc(NS(=O)(=O)c3ccc4ccccc4c3)ccc2C1 [Example 9, Naphthalene-2-sulfonic acid (2-methyl-1,2,3,4-tetrahydro-isoquinolin-6-yl)-amide hydrochloride] | 60.1% | 86.5% | 0.0092 ± 0.0012 µM
10 | O=S(=O)(Nc1ccc2c(c1)CCNC2)c1c(Cl)nc2sccn12 [Example 10, 6-Chloro-imidazo[2,1-b] thiazole-5-sulfonic acid (1,2,3,4,- tetrahydro-isoquinolin-6-yl)-amide hydrochloride] | 85.8% | 94.6% | 0.0013 ± 0.00012 µM
11 | CC(C)(C)OC(=O)N1CCc2cc(NS(=O)(=O)c3cccc4ccccc34)ccc2C1 [Example 13, 6-(Naphthalene-1-sulfonylamino)-3,4-dihydro-1H-isoquinoline-2-carboxylic acid tert-butyl ester] | 30.7% | 28.8% | 0.0013 µM
12 | Cc1c(S(=O)(=O)Nc2ccc3c(c2)CCN(C(=O)OC(C)(C)C)C3)sc2ccc(Cl)cc12 [Example 14, 6-(5-Chloro-3-methyl-benzo[b]thiophene-2-sulfonylamino)-3,4-dihydro-1H-isoquinoline-2-carboxylic acid tert-butyl ester] | -7.3% | -3% | 
13 | Cc1ccc(S(=O)(=O)Nc2ccc3c(c2)CCN(C(=O)OC(C)(C)C)C3)c2ccccc12 [Example 15, 6-(4-Methyl-naphthalene-1-sulfonylamino)-3,4-dihydro-1H-isoquinoline-2-carboxylic acid tert-butyl ester] | -5% | 8.2% | 
14 | CC(C)(C)OC(=O)N1CCc2cc(NS(=O)(=O)c3ccc4ccccc4c3)ccc2C1 [Example 16, 6-(Naphthalene-2-sulfonylamino)-3,4-dihydro-1H-isoquinoline-2-carboxylic acid tert-butyl ester] | 5.6% | 10.6% | 
15 | COc1ccc(C)cc1S(=O)(=O)Nc1ccc2c(c1)CCN(C(=O)OC(C)(C)C)C2 [Example 17, 6-(2-Methoxy-5-methyl-benzenesulfonylamino)-3,4-dihydro-1H-isoquinoline-2-carboxylic acid tert-butyl ester] | -1.3% | -2% | 
16 | CC(C)(C)OC(=O)N1CCc2cc(NS(=O)(=O)c3cccnc3)ccc2C1 [Example 18, 6-(Pyridine-3-sulfonylamino)-3,4-dihydro-1H-isoquinoline-2-carboxylic acid tert-butyl ester] | -0.8% | 6.8% | 
17 | CN1CCc2cc(NS(=O)(=O)c3c(Cl)nc4sccn34)ccc2C1 [Example 19, 6-Chloro-imidazo[2,1-b]thiazole-5-sulfonic acid (2-methyl-1,2,3,4tetrahydro-isoquinolin-6-yl)-amide hydrochloride] | 74.2% | 90% | 0.0023 ± 0.0002 µM
18 | O=S(=O)(Nc1ccc2c(c1)CCNC2)c1ccccc1-c1ccccc1 [Example 22, Biphenyl-2-sulfonic acid (1,2,3,4-tetrahydro-isoquinolin-6-yl)-amide hydrochloride] | 79.7% | 90.8% | 0.0123 ± 0.006 µM
19 | O=S(=O)(Nc1ccc2c(c1)CCNC2)c1cc2ccccc2s1 [Example 24, Benzo[b]thiophene-2-sulfonic acid (1,2,3,4-tetrahydro-isoquinolin-6-yl)-amide hydrochloride] | 53.6% | 86.8% | 0.0126 ± 0.0011 µM
20 | O=S(=O)(Nc1ccc2c(c1)CCNC2)c1csc2ccccc12 [Example 29, Benzo[b]thiophene-3-sulfonic acid (1,2,3,4-tetrahydro-isoquinolin-6-yl)-amide hydrochloride] | 88% | 89.6% | 0.0053 ± 0.0004 µM
21 | O=S(=O)(Nc1ccc2c(c1)CCNC2)c1ccc(F)c2ccccc12 [Example 30, 4-Fluoro-naphthalene-1-sulfonic acid (1,2,3,4-tetrahydro-isoquinolin-6-yl)-amide hydrochloride] | 63.2% | 85.2% | 0.0078 ± 0.0001 µM
22 | O=S(=O)(Nc1ccc2c(c1)CCNC2)c1ccc(Cl)c2ccccc12 [Example 31, 4-Chloro-naphthalene-1-sulfonic acid (1,2,3,4-tetrahydro-isoquinolin-6-yl)-amide hydrochloride] | 72.3% | 85.5% | 0.0057 µM
23 | CCc1ccc(OC)c(S(=O)(=O)Nc2ccc3c(c2)CCNC3)c1 [Example 35, 5-Ethyl-2-methoxy-N-(1,2,3,4-tetrahydro-isoquinolin-6-yl)-benzene sulfonamide hydrochloride] | 48.8% | 81.6% | 0.0142 ± 0.0015 µM
